The conditions of this data set: a range is the spread between reports.

The structures appear in SMILES notation.

By melting point is commonly meant the temperature, or range, at which the solid turns liquid. For the molecule `CC1CC2C3CCC4=CC(=O)C=CC4(C)C3(F)C(O)CC2(C)C1(O)C(=O)CO` (stereo not given), the melting point is 262 to 263 °C. Then `CC(=O)Nc1nnc(S(N)(=O)=O)s1`, with 258 to 260 °C; and `N#CC1=C(C#N)C(=O)C(Cl)=C(Cl)C1=O`, with 214 to 215 °C; and `Nc1ncccn1`, with 125 to 128 °C. With `[O-][N+](=Nc1ccccc1)c1ccccc1` the figure was 35 to 36 °C; with `OCCCCCCCCCCO`, 72 to 74 °C.

On to `N#CI`, for which the melting point was 146 to 147 °C.

The molecule `Oc1ccccc1F` registered a melting point of 15 to 16.1 °C.

`CC(=O)c1ccncc1` showed a melting point of 15 to 16 °C.

The molecule `O=C1c2ccccc2C(=O)c2c(O)ccc(O)c21` yielded a melting point of 197 to 200 °C.

As to `CC(C)C(=O)O`, the melting point was -47 to -46 °C. For `COC(=O)CC(=O)OC`, the melting point is -62 to -61.9 °C.

`N#CC(Br)(Br)C(N)=O` displayed a melting point of 124 °C. Take `CC(=O)OCC(C(OC(C)=O)c1ccccc1)[N+](=O)[O-]` (stereo not given): the melting point was 70 to 71 °C. In the case of `CN(C)c1cccc([N+](=O)[O-])c1`, the melting point is 59 to 60.5 °C. With `O=C(O)CCBr`, the melting point is 60 to 62.5 °C. As for `CC1CC1`, the melting point was -177 °C. Then `CN1C(=O)OC(C)(C)C1=O`, with 46 to 47 °C; and `CCC(O)(CC)CC`, with -13 to -12.5 °C; and `COc1ccc(O)cc1`, with 55 to 57 °C.

Regarding `CCCC#N`, the melting point is -112 °C. With `CC(C)C(N)=O` the figure was 128 to 129 °C; with `Cc1ccccc1O`, 29.8 to 33 °C; with `C[Si]1(C)N[Si](C)(C)N[Si](C)(C)N[Si](C)(C)N1`, 96 to 97.5 °C.

With `CCCCSCCCC`, the melting point is -80 to -79.7 °C. With `CC(=CC(=O)O)C(=O)O` the figure was 90 to 93.5 °C; with `COCCOCCOC`, -68 to -64 °C. Take `c1ccc2[nH]c(-c3cscn3)nc2c1`: the melting point is 300 °C.

`BrC(c1ccccc1)(c1ccccc1)c1ccccc1` yielded a melting point of 153 to 154 °C.

The molecule `CC(=O)c1ccc(Cl)cc1Cl` returned a melting point of 33 to 34 °C. Then `Cc1ccc(S(N)(=O)=O)cc1`, with 138 to 139 °C; and `NC(=O)c1ccccc1Cl`, with 142 to 143 °C. In turn, `N#Cc1ccccc1[N+](=O)[O-]` came in with a melting point of 108 to 109 °C.

In the case of `c1ccc(-c2nnc(-c3ccccc3)o2)cc1`, the melting point fell in the range of 139 to 140 °C. Turning to `Fc1c(F)c(F)c(C(F)(F)F)c(F)c1F`, the melting point was -66 to -65.6 °C. Then `O=C1c2ccccc2C(=O)N1CCBr`, with 82 to 82.5 °C. `CC(=O)N[C@@H](CS)C(=O)O`: the melting point amounted to 110 °C. In turn, `ClCCl` displayed a melting point of -97 to -95 °C. In the case of `CC(=O)CCCC(=O)O`, the melting point was 12 to 13.5 °C. Then `Nc1ccc2[nH]ncc2c1`, with 175 to 176 °C; and `O=C(O)c1ccc(CBr)cc1`, with 225 to 230 °C. Then `O=C1CCCCCCCCC1`, with 24 to 28 °C. Then `O=C(O)CCCCCCC(=O)O`, with 143 to 144 °C; and `CC#CCC(C)C`, with -93 to -92.9 °C. In turn, `Clc1sc(Cl)c(Cl)c1Cl` had a melting point of 28 to 30.5 °C. Then `Oc1ccc(Cc2ccc(O)cc2)cc1`, with 161 to 162 °C; and `O=C1CCCCN1`, with 37 to 39.5 °C. With `O=C(Oc1ccc([N+](=O)[O-])cc1)c1ccccc1` the figure was 139 to 143 °C. The molecule `NNC(=O)Nc1ccccc1` came in with a melting point of 124 to 128 °C. With `CC1(C)OC(=O)CC(=O)O1` the figure was 94 to 98 °C.

`BrCCCCCCBr`: the melting point is -2.3 to 2 °C.

In turn, `COC1=CC(=O)C=C(OC)C1=O` returned a melting point of 253 to 256 °C. For the molecule `Cc1ccc2cccnc2c1`, the melting point was 36.5 to 39 °C. With `Cn1nnc2ccccc21` the figure was 64.5 to 65 °C; with `Cc1ccccc1NC(=N)Nc1ccccc1C`, 177 to 179 °C.

(Values after a melting point compilation (Tetko et al.).)
